From PubChem BioAssay (NCI)
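In this assay, cells in 96-well plates receive the compound at five concentrations for 48 hours. Endpoints are linearly interpolated between the surrounding concentrations. TGI is the concentration that stops growth completely.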

What was measured:
Assay in all cases: NCI tumour cell line growth inhibition, 48 h
[1] = system: HOP-92 NSCLC
[2] = system: SN12C renal
[3] = system: CCRF-CEM leukemia
[4] = system: NCI-H522 lung
[5] = system: HCT-15 colon
[6] = system: K-562 leukemia
[7] = system: MOLT-4 leukemia
[8] = system: EKVX NSCLC
[9] = system: MDA-MB-231 breast
[10] = system: MDA-N
[11] = system: UACC-62 melanoma
[12] = system: SNB-19 CNS
[13] = system: T-47D breast
[14] = system: NCI-H226 lung
[15] = system: MDA-MB-435
[16] = system: HL-60(TB) leukemia
[17] = system: OVCAR-8 ovarian
[18] = system: IGROV1 ovarian
[19] = system: CAKI-1 renal
[20] = system: RPMI-8226 leukemia

Row | Structure (SMILES) | TGI [1] | TGI [2] | TGI [3] | TGI [4] | TGI [5] | TGI [6] | TGI [7] | TGI [8] | TGI [9] | TGI [10] | TGI [11] | TGI [12] | TGI [13] | TGI [14] | TGI [15] | TGI [16] | TGI [17] | TGI [18] | TGI [19] | TGI [20]
1 | COC(=O)C(Cc1ccccc1)NP(=O)(O)OCC1OC(n2cc(Br)c(=O)[nH]c2=O)CC1O (centres undefined) | > 100 µM | > 100 µM | > 100 µM | > 100 µM | > 100 µM | > 100 µM | > 100 µM | > 100 µM | > 100 µM | > 100 µM | > 100 µM | > 100 µM | > 100 µM | > 100 µM | > 100 µM | > 100 µM | > 100 µM | > 100 µM | – | –
2 | O=c1c2ccccc2nc(-c2cc3c(cc2Cl)Sc2nccn2S3(=O)=O)n1-c1ccccc1 | 58.5 µM | > 100 µM | – | > 100 µM | 33 µM | > 100 µM | > 100 µM | 48 µM | 38.2 µM | 33.8 µM | 71.7 µM | > 100 µM | 23.8 µM | > 100 µM | 71.1 µM | 15.5 µM | 44 µM | > 100 µM | > 100 µM | 48.5 µM
3 | CN(C)c1ccc(/C=C/C(=O)CC(=O)/C=C/c2ccc(N(C)C)cc2)cc1 | – | > 100 µM | > 100 µM | > 100 µM | > 100 µM | > 100 µM | > 100 µM | > 100 µM | > 100 µM | > 100 µM | > 100 µM | > 100 µM | > 100 µM | > 100 µM | > 100 µM | > 100 µM | > 100 µM | > 100 µM | > 100 µM | > 100 µM
4 | O=NN1C(c2ccccc2)CC(=NO)CC1c1ccccc1 (centres undefined) | > 100 µM | > 100 µM | – | > 100 µM | > 100 µM | > 100 µM | > 100 µM | > 100 µM | > 100 µM | > 100 µM | > 100 µM | > 100 µM | > 100 µM | > 100 µM | > 100 µM | > 100 µM | > 100 µM | > 100 µM | > 100 µM | > 100 µM
5 | CC(=O)OC/C=C/[C@H](O[Si](C)(C)C(C)(C)C)[C@@H](O)/C=C/COC(C)=O | > 100 µM | > 100 µM | 52 µM | > 100 µM | > 100 µM | 52.8 µM | 54.8 µM | > 100 µM | > 100 µM | > 100 µM | > 100 µM | > 100 µM | > 100 µM | > 100 µM | > 100 µM | – | > 100 µM | > 100 µM | > 100 µM | 43.7 µM
6 | OCCOCCN1CCN(CCCN2c3ccccc3Sc3ccc(C(F)(F)F)cc32)CC1 | 27.8 µM | 26.7 µM | 1.32 µM | 28.2 µM | 38.3 µM | 10.3 µM | 29.8 µM | 29.2 µM | 24 µM | 26.1 µM | 19.5 µM | 27.8 µM | 2.48 µM | 37.2 µM | 23.8 µM | – | 30 µM | 22.2 µM | 30.5 µM | 17.8 µM
7 | NC(=O)Nc1ccc(S(=O)(=O)Nc2ccc(S(N)(=O)=O)cc2)cc1 | > 100 µM | > 100 µM | > 100 µM | > 100 µM | > 100 µM | > 100 µM | – | > 100 µM | > 100 µM | > 100 µM | > 100 µM | > 100 µM | > 100 µM | > 100 µM | > 100 µM | – | > 100 µM | > 100 µM | > 100 µM | > 100 µM
8 | Cc1ccc2nc(Cl)c(/C=N/N3C(=O)/C(=C/c4cccc([N+](=O)[O-])c4)N=C3c3ccccc3)cc2c1 | > 100 µM | > 100 µM | 97 µM | – | > 100 µM | > 100 µM | 80.5 µM | > 100 µM | > 100 µM | 42.2 µM | > 100 µM | > 100 µM | > 100 µM | – | 54.5 µM | > 100 µM | > 100 µM | > 100 µM | > 100 µM | > 100 µM
9 | Cc1ccc(C2=Nn3c(nc4sc(C)c(C)c4c3=O)SC2)cc1 | > 100 µM | > 100 µM | – | > 100 µM | > 100 µM | > 100 µM | > 100 µM | > 100 µM | > 100 µM | > 100 µM | > 100 µM | – | > 100 µM | > 100 µM | > 100 µM | > 100 µM | > 100 µM | > 100 µM | > 100 µM | > 100 µM
10 | N#C[C@@H](c1nc2ccccc2s1)c1ncccc1[N+](=O)[O-] | 6.85 µM | > 31.6 µM | – | 12 µM | > 31.6 µM | – | > 31.6 µM | > 31.6 µM | 17.4 µM | > 31.6 µM | > 31.6 µM | 17.4 µM | 25 µM | 87.8 µM | > 100 µM | – | 20.6 µM | – | > 100 µM | –
11 | Cc1ccc2nc3c(=O)[nH]c(=O)nc-3n(C)c2c1C | – | > 100 µM | > 100 µM | > 100 µM | > 100 µM | > 100 µM | > 100 µM | > 100 µM | > 100 µM | > 100 µM | > 100 µM | > 100 µM | > 100 µM | > 100 µM | > 100 µM | > 100 µM | > 100 µM | > 100 µM | > 100 µM | > 100 µM
12 | O=C(NNC(=S)Nc1ccccc1)c1cc(-c2ccccc2)nc2ccccc12 | 37.7 µM | 40.6 µM | 29.9 µM | 52.6 µM | 33 µM | 63.2 µM | 32.2 µM | – | 52.5 µM | 37.9 µM | 39.1 µM | > 100 µM | 50.5 µM | 63.8 µM | 59.4 µM | – | 57.6 µM | > 100 µM | 64.8 µM | 44.9 µM
